Data: patent US20100323950A1, “USE OF BETA-MELANOTROPIN AS A THERAPEUTIC AGENT, EG FOR THE TREATMENT OF AIDS OR ALZHEIMER” (priority 2007, published 2010)

Tested on: drug-resistant Mycobacterium tuberculosis
Details: Mycobacterium tuberculosis resistant to PAS, streptomycin, INH; peptide 10 micrograms per ml; seven days

CSCC[C@H](NC(=O)[C@H](CCCNC(=N)N)NC(=O)[C@H](Cc1ccc(O)cc1)NC(=O)[C@@H]1CCCN1C(=O)CNC(=O)[C@H](CCC(=O)O)NC(=O)[C@H](CC(=O)O)NC(=O)[C@H](CCCCN)NC(=O)[C@H](CCCCN)NC(=O)[C@H](CCC(=O)O)NC(=O)[C@H](C)N)C(=O)N[C@@H](CCC(=O)O)C(=O)N[C@@H](Cc1c[nH]cn1)C(=O)N[C@@H](Cc1ccccc1)C(=O)N[C@@H](CCCNC(=N)N)C(=O)N[C@@H](Cc1c[nH]c2ccccc12)C(=O)NCC(=O)N[C@@H](CO)C(=O)N1CCC[C@H]1C(=O)N1CCC[C@H]1C(=O)N[C@@H](CCCCN)C(=O)N[C@@H](CC(=O)O)C(=O)O [Beta MSH] was tested, and the “% inhibition” value was 0.0%.
